# US11291684B2, “Treatment of glaucoma” (TX MEDIC AB, priority 2017, dated 2022)
# Tests used:
# [1] = tested on: Schwann cells; assay: Gene expression (microarray) in cultured Schwann cells; assay type: cell-based, Human
# Procedure: n=8×25 cm^2 culture flasks were set up. Two flasks were harvested on the day of treatment (24 hours after seeding). This represents the Day0 time point. From the remaining flasks, three flasks were treated with Control Medium and three were treated with Culture Medium (CM) containing dextran sulfate to give a final concentration of 0.01 mg/ml. Cells from the treated flasks were collected after 48 hours. Therefore the collected data represent (a) untreated cells (Day0 Controls and Day2 Controls) and (b) cells treated with dextran sulfate for 48 hours (Day2 dextran sulfate treated).
# 25 cm^2 flasks were coated by adding 2 ml per flask of a solution of 50 μg/ml poly-d-lysine in Hank's balanced salt solution (HBSS) and incubating overnight at 37° C. in the dark. Flasks were washed with cell culture water and air-dried for 30 min in the dark. Flasks were coated by adding 1 ml per flask of a solution of 25 μg/ml laminin in phosphate-buffered saline (PBS) and incubating for 2 hour at 37° C. in the dark. The laminin flasks were washed with PBS three times before plating cells.
# Schwann cells growth medium was prepared by adding 10% of fetal bovine serum (FBS) to high-glucose DMEM and pre-warmed to 37° C. Cells were thawed in a 37° C. water bath for no longer than 2 min.
# Cells from 12 vials were each gently transferred to a tube containing 10 ml of high-glucose DMEM medium and centrifuged at 400 relative centrifugal field (RCF) for 10 min. Pellet was resuspended in culture medium. The cells from the 12 vials were mixed and distributed equally into the previously coated 25 cm^2 flasks (n=8). Cells were incubated at 37° C. with 5% CO2. Cells were allowed to settle for 24 hours before dextran sulfate treatment.
# Dextran sulfate (Tikomed AB, Sweden, WO 2016/076780) was provided at a stock concentration of 20 mg/ml and was kept in a temperature monitored refrigerator at 4° C. A fresh 100× dextran sulfate stock (1.0 mg/ml) was prepared in sterile DMEM-F12. The concentrated drug stock was sterile filtered and added to the respective culture media (19.6 ml CM and 0.4 ml dextran sulfate stock solution). The Control was made using 19.6 ml CM and 0.4 ml of DMEM-F12. Dextran sulfate and CM were added to the respective flasks (5 ml each) to reach the 0.01 mg/ml concentration of dextran sulfate in each dish with a total of 10 ml CM each.
# CM was aspirated into a clean and labelled 15 ml Falcon tube. The flasks (without culture medium) were placed into the −80° C. freezer for 30 minutes. The CM in the Falcon tubes were spun at 3000×g for 5 minutes. Supernatant was removed and the small pellet was re-suspended in 2.5 ml Trizol:Water (4:1) solution at room temperature (RT, ˜22° C.).
# The frozen flasks were removed one-by one from the freezer and the Trizol-Water from the appropriate tubes was moved to the flask. Flasks were left at RT for 5 minutes before the content was aspirated back into the 15 ml Falcon tube (after washing the bottom of the flask with the solution thoroughly). The flasks were inspected under the microscope to ensure full removal of cells. The collected lysates in the 15 ml Falcon tubes were placed into the −80° C. freezer.
# Two aliquots of 1 ml lysate was removed from each sample and 200 μl of chloroform was added to each (0.2 ml of chloroform per 1 ml of TRIzol Reagent used during the cell lysis step) and the tube was shaken vigorously. Samples were stored at RT for 2-3 minutes and subsequently centrifuged at 12,000×g for 15 minutes at 4° C.
# The RNA was precipitated from the aqueous phase by adding an equal amount of 100% ethanol. The precipitated RNA was fixed onto a Spin Cartridge, washed twice and dried. The RNA was eluted in 50 μl warm RNase-Free Water. The amount and quality of the purified RNA was measured by Nanodrop. The RNA was stored at −80° C. before transfer to Source Bioscience for Array analysis.
# The expression data were downloaded into separate files for each cell line. […]
# [2] = tested on: retinal nerve fiber layer (RNFL); assay: OCT analysis of retinal nerve fiber layer in TGF-β-induced glaucoma model; assay type: in vivo, Sprague Dawley rats; conditions: rat TGF-β glaucoma model; day 28
# Procedure: Glaucoma was induced in adult male Sprague Dawley rats by repeat twice weekly intracameral (IC) injections of transforming growth factor-β (TGF-β) to increase intraocular pressure (IOP). Sustained increases in IOP (after two weeks) leads to death of retinal ganglion cells (30-40%). Dextran sulfate (Tikomed AB, Sweden, WO 2016/076780) was administered at 15 mg/kg by daily subcutaneous injection from […] to assess RGC protection compared to controls.
# Measured End-Points • IOP twice weekly throughout study from day 0 to day 28; • Immunohistochemistry for counting RGC that are immunoreactive for brain-specific homeobox/POU domain protein 3A (Brn3a) at day 28 (RGC survival); • Immunohistochemistry for laminin and fibronectin to evaluate scarring in the trabecular meshwork at day 28 in Groups 1 and 2; • Anterior segment and OCT imaging at day 28 to examine the angle and the thickness of the retinal nerve fiber layer comprising RGC axons; and • Body weight at day 28.
# Optical coherence tomography allows in vivo measuring of retinal thickness with RNFL being a surrogate measure of RGC density. OCT retinal nerve fiber layer analysis was performed at day 28 on all rats while under inhalation anesthesia using a Spectralis HRA3 confocal scanning laser ophthalmoscope (Heidelberg Engineering). […] In-built software was used to segment the images and quantify the RNFL thickness.
substance,measurement,setting,value
dextran sulfate,effect on cell adhesion and movement in Schwann cells,"[1]; 0.01 mg/ml, 48 hours",promoted cell detachment and movement
same,differentially expressed genes,"[1]; D0 control vs D2 dextran sulfate treated, 0.01 mg/ml, 48 hours",1244 genes
same,differentially expressed genes,"[1]; D2 control vs D2 dextran sulfate treated, 0.01 mg/ml, 48 hours",700 genes
same,"increase in decorin expression, fold change","[1]; Schwann cells, 0.01 mg/ml, 48 hours",1.242
same,genes: abolished nutrient effect,[1]; no effect,21
same,genes: total,[1]; no effect,21
same,genes: abolished nutrient effect,[1]; significant downregulation,1
same,genes: enhanced response to nutrients,[1]; significant downregulation,122
same,genes: new effect induced by dextran sulfate,[1]; significant downregulation,352
same,genes: not different from control,[1]; significant downregulation,42
same,genes: total,[1]; significant downregulation,517
same,genes: abolished nutrient effect,[1]; significant upregulation,13
same,genes: enhanced response to nutrients,[1]; significant upregulation,441
same,genes: new effect induced by dextran sulfate,[1]; significant upregulation,74
same,genes: not different from control,[1]; significant upregulation,373
same,genes: total,[1]; significant upregulation,901
same,genes: abolished nutrient effect,[1]; total,35
same,genes: enhanced response to nutrients,[1]; total,563
same,genes: new effect induced by dextran sulfate,[1]; total,426
same,genes: not different from control,[1]; total,415
same,genes: total,[1]; total,1439
same,RNFL (OCT) compared to saline treatment,[2],preserved
